Reference: PMC11768839 (Viruses, 2024)

What was measured:
influenza PR8 = type: cell-based, Influenza A virus PR8

SMILES: O=[N+]([O-])c1ccc(Nc2ccc(Cl)c(C(F)(F)F)c2)c2nonc12 [Compound 5342191, N-[4-chloro-3-(trifluoromethyl)phenyl]-7-nitro-2,1,3-benzoxadiazol-4-amine]
- sensitivity of selected influenza PR8 virus to EC90 dose (influenza PR8): remained sensitive
- sensitivity of selected HCoV-229E virus to EC90 dose (HCoV-229E): remained sensitive
